In patent US9060971B2, “Combination pharmaceutical agents as inhibitors of HCV replication” (Enanta Pharmaceuticals, Inc., priority 2010, dated 2015):

Tested on: HCV 1b genotype replicon
Assay: HCV replicon drug screening assay (quantitative RT-PCR or luciferase), genotype 1b
Format: cell-based
Conditions: Hepatitis C virus; HCV 1b genotype replicon; quantitative RT-PCR or luciferase assay; read-out: Genotype-1b replicon EC50 Range
Excerpt: HCV replicon cell lines (kindly provided by R. Bartenschlager) isolated from colonies as described by Lohman et. al. (Lohman et al. (1999) Science 285: 110-113, expressly incorporated by reference in its entirety) and used for all experiments. The HCV replicon has the nucleic acid sequence set forth in EMBL Accession No.: AJ242651, the coding sequence of which is from nucleotides 1801 to 8406.
The coding sequence of the published HCV replicon was synthesized and subsequently assembled in a modified plasmid pBR322 (Promega, Madison, Wis.) using standard molecular biology techniques. One replicon cell line (“SGR 11-7”) stably expresses HCV replicon RNA which consists of (i) the HCV 5′UTR fused to the first 12 amino acids of the capsid protein, (ii) the neomycin phosphotransferase gene (neo), (iii) the IRES from encephalomyocarditis virus (EMCV), and (iv) HCV NS2 to NS5B genes and the HCV 3′UTR. Another replicon cell line (“Huh-luc/neo-ET”) described by Vrolijk et. al. (Vrolijk et. al. (2003) Journal of Virological Methods 110:201-209, expressly incorporated by reference in its entirety) stably expresses HCV replicon RNA which consists of (i) the HCV 5′UTR fused to the first 12 amino acids of the capsid protein, (ii) the firefly luciferase reporter gene, (iii) the ubiquitin gene, (iv) the neomycin phosphotransferase gene (neo), (v) the IRES from encephalomyocarditis virus (EMCV), and (vi) HCV NS3 to NS5B genes that harbor cell culture adaptive mutations (E1202G, T12801, K1846T) and the HCV 3′UTR.
These cell lines are maintained at 37° C., 5% CO2, 100% relative humidity in DMEM (Cat#11965-084, Invitrogen), with 10% fetal calf serum (“FCS”, Invitrogen), 1% non-essential amino acids (Invitrogen), 1% of Glutamax (Invitrogen), 1% of 100× penicillin/streptomycin (Cat#15140-122, Invitrogen) and Geneticin (Cat#10131-027, Invitrogen) at 0.75 mg/ml or 0.5 mg/ml for 11-7 and Huh-luc/neo-ET cells, respectively.
EC50 values of single agent compounds and combinations were determined by HCV RNA detection using quantitative RT-PCR, according to the manufacturer's instructions, with a TAQMAN® One-Step RT-PCR Master Mix Reagents Kit (Cat#AB 4309169, Applied Biosystems) on an ABI Model 7500 thermocycler. The TaqMan primers to use for detecting and quantifying HCV RNA are 5′-GCTGCGGCCTGTCGAGCT-3′ (SEQ ID NO: 1), 5′-CAAGGTCGTCTCCGCATAC-3′ (SEQ ID NO: 2) and the probe 5′-FAM-[…]-BHQ-3′ (SEQ ID NO: 3) obtained from Integrated DNA Technologies. HCV RNA is normalized to GAPDH RNA levels in drug-treated cells, which is detected and quantified using the Human GAPDH Endogenous Control Mix (Applied Biosystems, AB 4310884E). Total cellular RNA is purified from 96-well plates using the RNAqueous 96 kit (Ambion, Cat#AM1812). Chemical agent cytotoxicity was evaluated using an MTS assay according to the manufacturer's directions (Promega).
The compounds described herein can be effective against the HCV 1b genotype. It should also be understood that the compounds can inhibit multiple genotypes of HCV. In one embodiment, compounds of Formula (I) are active against the 1a, 1b, 2a, 2b, 3a, 4a, and 5a genotypes. […] The EC50 ranges were classified into the following groups: A>10 nM; B 1-10 nM; C<1 nM. The potential cytotoxicities of each agent were analyzed in parallel by MTS assay and are greater than 3 uM for all agents.

`CC(C)[C@H](Nc1ncccn1)C(=O)N1CCC[C@H]1c1nc2cc(-c3ccc(-c4ccc5[nH]c([C@@H]6CCCN6C(=O)[C@@H](Nc6ncccn6)C(C)C)nc5c4)cc3)ccc2[nH]1` [Compound 19] and `COC(=O)N[C@H](C(=O)N1CCC[C@H]1c1nc2cc(-c3ccc4cc(-c5ccc6[nH]c([C@@H]7CCCN7C(=O)[C@@H](NC(=O)OC)C(C)C)nc6c5)ccc4c3)ccc2[nH]1)C(C)C` [Compound 20] cannot be ordered by EC50: under 1 nM for the first, under 1 nM for the second.

`COC(=O)N[C@H](C(=O)N1CCC[C@H]1c1nc2cc(-c3ccc4nc(-c5ccc6[nH]c([C@@H]7CCCN7C(=O)[C@@H](NC(=O)OC)C(C)C)nc6c5)ncc4c3)ccc2[nH]1)C(C)C` [Compound 21] and `COC(=O)N[C@H](C(=O)N1CCC[C@H]1c1nc(-c2ccc3cc(-c4ccc5[nH]c([C@@H]6CCCN6C(=O)[C@@H](NC(=O)OC)C(C)C)nc5c4)ccc3c2)c[nH]1)C(C)C` [Compound 48] cannot be ordered by EC50: under 1 nM for the first, under 1 nM for the second.

`O=C(Cc1ccccn1)N1CCC[C@H]1c1nc2cc(-c3ccc(-c4ccc5[nH]c([C@@H]6CCCN6C(=O)Cc6ccccn6)nc5c4)cc3)ccc2[nH]1` [Compound 22] and `COC(=O)N[C@@H](CC(C)C)C(=O)N1CCC[C@H]1c1nc2cc(-c3ccc(-c4ccc5[nH]c([C@@H]6CCCN6C(=O)[C@H](CC(C)C)NC(=O)OC)nc5c4)cc3)ccc2[nH]1` [Compound 25] cannot be ordered by EC50: under 1 nM for the first, under 1 nM for the second.

Compared with `COCCOC(=O)N[C@H](C(=O)N1CCC[C@H]1c1nc2cc(-c3ccc(-c4ccc5[nH]c([C@@H]6CCCN6C(=O)[C@@H](NC(=O)OCCOC)C(C)C)nc5c4)cc3)ccc2[nH]1)C(C)C` [Compound 23], `CC[C@H](C)[C@H](NC(=O)OC)C(=O)N1CCC[C@H]1c1nc2cc(-c3ccc(-c4ccc5[nH]c([C@@H]6CCCN6C(=O)[C@@H](NC(=O)OC)[C@@H](C)CC)nc5c4)cc3)ccc2[nH]1` [Compound 26] is lower in EC50: over 10 nM for the first, under 1 nM for the second. The second is the more potent here.

`COC(=O)N[C@H](C(=O)N1CCC[C@H]1c1nc2cc(-c3ccc(-c4ccc5[nH]c([C@@H]6CCCN6C(=O)[C@@H](NC(=O)OC)C6CCCC6)nc5c4)cc3)ccc2[nH]1)C1CCCC1` [Compound 24] and `COC(=O)N[C@H](C(=O)N1CCC[C@H]1c1nc2cc(C#Cc3ccc(-c4ccc5[nH]c([C@@H]6CCCN6C(=O)[C@@H](NC(=O)OC)C(C)C)nc5c4)cc3)ccc2[nH]1)C(C)C` [Compound 33] cannot be ordered by EC50: under 1 nM for the first, under 1 nM for the second.

`COC(=O)N[C@@H](C(=O)N1CCC[C@H]1c1nc2cc(CC=CCc3ccc4[nH]c([C@@H]5CCCN5C(=O)[C@H](NC(=O)OC)c5ccccc5)nc4c3)ccc2[nH]1)c1ccccc1` [Compound 28] and `COC(=O)N[C@@H](C(=O)N1CCC[C@H]1c1nc2cc(CC=Cc3ccc4nc([C@@H]5CCCN5C(=O)[C@H](NC(=O)OC)c5ccccc5)[nH]c4c3)ccc2[nH]1)c1ccccc1` [Compound 30] cannot be ordered by EC50: under 1 nM for the first, under 1 nM for the second.

`COC(=O)N[C@@H](C(=O)N1CCC[C@H]1c1nc2cc(CCCCc3ccc4[nH]c([C@@H]5CCCN5C(=O)[C@H](NC(=O)OC)c5ccccc5)nc4c3)ccc2[nH]1)c1ccccc1` [Compound 29] and `COC(=O)N[C@@H](C(=O)N1CCC[C@H]1c1nc2cc(CCCc3ccc4nc([C@@H]5CCCN5C(=O)[C@H](NC(=O)OC)c5ccccc5)[nH]c4c3)ccc2[nH]1)c1ccccc1` [Compound 31] cannot be ordered by EC50: under 1 nM for the first, under 1 nM for the second.

Compared with `COC(=O)N[C@@H](C(=O)N1CCC[C@H]1c1nc2cc(NC(=O)Nc3ccc4nc([C@@H]5CCCN5C(=O)[C@H](NC(=O)OC)c5ccccc5)[nH]c4c3)ccc2[nH]1)c1ccccc1` [Compound 32], `COC(=O)N[C@@H](C(=O)N1CCC[C@H]1c1ncc(-c2ccc(-c3ccc4[nH]c([C@@H]5CCCN5C(=O)[C@H](NC(=O)OC)c5ccccc5)nc4c3)cc2)[nH]1)c1ccccc1` [Compound 35] is lower in EC50: over 10 nM for the first, under 1 nM for the second. The second is the more potent here.

`COC(=O)N[C@H](C(=O)N1CCC[C@H]1c1nc2cc(CCc3ccc(-c4ccc5[nH]c([C@@H]6CCCN6C(=O)[C@@H](NC(=O)OC)C(C)C)nc5c4)cc3)ccc2[nH]1)C(C)C` [Compound 34] and `COC(=O)N[C@H](C(=O)N1CCC[C@H]1c1ncc(-c2ccc(CCCc3ccc4[nH]c([C@@H]5CCCN5C(=O)[C@@H](NC(=O)OC)C(C)C)nc4c3)cc2)[nH]1)C(C)C` [Compound 43] cannot be ordered by EC50: under 1 nM for the first, under 1 nM for the second.

`COC(=O)N[C@@H](C(=O)N1CCC[C@H]1c1nc(-c2ccc(C#Cc3ccc4[nH]c([C@@H]5CCCN5C(=O)[C@H](NC(=O)OC)c5ccccc5)nc4c3)cc2)c[nH]1)c1ccccc1` [Compound 36] and `COC(=O)N[C@@H](C(=O)N1CCC[C@H]1c1nc(-c2ccc(C#Cc3ccc4[nH]c([C@@H]5CCCN5C(=O)[C@H](NC(=O)OC)c5ccccc5)nc4c3)cc2)n[nH]1)c1ccccc1` [Compound 39] cannot be ordered by EC50: under 1 nM for the first, under 1 nM for the second.

`COC(=O)N[C@@H](C(=O)N1CCC[C@H]1c1ncc(-c2ccc(CCc3ccc4nc([C@@H]5CCCN5C(=O)[C@H](NC(=O)OC)c5ccccc5)[nH]c4c3)cc2)[nH]1)c1ccccc1` [Compound 37] and `COC(=O)N[C@@H](C(=O)N1CCC[C@H]1c1nc(-c2ccc(CCc3ccc4[nH]c([C@@H]5CCCN5C(=O)[C@H](NC(=O)OC)c5ccccc5)nc4c3)cc2)n[nH]1)c1ccccc1` [Compound 40] cannot be ordered by EC50: under 1 nM for the first, under 1 nM for the second.

`COC(=O)N[C@@H](C(=O)N1CCC[C@H]1c1nc(-c2ccc(/C=C/c3ccc4[nH]c([C@@H]5CCCN5C(=O)[C@H](NC(=O)OC)c5ccccc5)nc4c3)cc2)c[nH]1)c1ccccc1` [Compound 38] and `COC(=O)N[C@@H](C(=O)N1CCC[C@H]1c1cc(-c2ccc(C#Cc3ccc4[nH]c([C@@H]5CCCN5C(=O)[C@H](NC(=O)OC)c5ccccc5)nc4c3)cc2)n[nH]1)c1ccccc1` [Compound 41] cannot be ordered by EC50: under 1 nM for the first, under 1 nM for the second.

`COC(=O)N[C@@H](C(=O)N1CCC[C@H]1c1cc(-c2ccc(CCc3ccc4[nH]c([C@@H]5CCCN5C(=O)[C@H](NC(=O)OC)c5ccccc5)nc4c3)cc2)n[nH]1)c1ccccc1` [Compound 42] and `COC(=O)N[C@H](C(=O)N1CCC[C@H]1c1nc(-c2ccc3cc(-c4ccc5[nH]c([C@@H]6CCCN6C(=O)[C@H](NC(=O)OC)c6ccccc6)nc5c4)ccc3c2)c[nH]1)[C@@H](C)OC` [Compound 51] cannot be ordered by EC50: under 1 nM for the first, under 1 nM for the second.

`COC(=O)N[C@H](C(=O)N1CCC[C@H]1c1nc(-c2ccc(OCc3ccc4[nH]c([C@@H]5CCCN5C(=O)[C@@H](NC(=O)OC)C(C)C)nc4c3)cc2)c[nH]1)C(C)C` [Compound 44] and `COC(=O)N[C@H](C(=O)N1CCC[C@H]1c1nc(-c2ccc(CCc3ccc4[nH]c([C@@H]5CCCN5C(=O)[C@@H](NC(=O)OC)C(C)C)nc4c3)s2)c[nH]1)C(C)C` [Compound 46] cannot be ordered by EC50: under 1 nM for the first, under 1 nM for the second.

`COC(=O)N[C@H](C(=O)N1CCC[C@H]1c1nc(-c2ccc(/C=C/c3ccc4[nH]c([C@@H]5CCCN5C(=O)[C@@H](NC(=O)OC)C(C)C)nc4c3)s2)c[nH]1)C(C)C` [Compound 45] and `COC(=O)N[C@H](C(=O)N1CCC[C@H]1c1nc(-c2ccc(CCCc3ccc4nc([C@@H]5CCCN5C(=O)[C@@H](NC(=O)OC)C(C)C)[nH]c4c3)s2)c[nH]1)C(C)C` [Compound 47] cannot be ordered by EC50: under 1 nM for the first, under 1 nM for the second.

`COC(=O)N[C@H](C(=O)N1CCC[C@H]1c1nc(-c2ccc3cc(-c4ccc5[nH]c([C@@H]6CCCN6C(=O)[C@@H](NC(=O)OC)[C@@H](C)OC)nc5c4)ccc3c2)c[nH]1)[C@@H](C)OC` [Compound 49] and `COC(=O)N[C@H](C(=O)N1CCC[C@H]1c1nc2cc(-c3ccc4cc(-c5c[nH]c([C@@H]6CCCN6C(=O)[C@@H](NC(=O)OC)[C@@H](C)OC)n5)ccc4c3)ccc2[nH]1)C(C)C` [Compound 52] cannot be ordered by EC50: under 1 nM for the first, under 1 nM for the second.
